According to patent US20200245620A1 (priority 2018, published 2020):
In brackets after ≈: the same amount, converted by molar mass.

Test system: Fusarium graminearum
Assay: microbe, parasite or virus in culture
Assay type: cell-based
Conditions: for EC50: Fusarium graminearum

| Compound | inhibitory activity on the growth in vitro (sensitive and fungicide-resistant strains, alone or mixed with ipconazole) | EC50 (F.g carbendazim-resistant strains) | EC50 (F.g phenamacril-resistant strains) |
| --- | --- | --- | --- |
| OCC1=C[C@H](N[C@H]2C[C@H](CO)[C@@H](O[C@@H]3O[C@H](CO)[C@@H](O)[C@H](O)[C@H]3O)[C@H](O)[C@H]2O)[C@H](O)[C@@H](O)[C@@H]1O [Jinggangmycin] | almost does not have inhibitory activity | – | – |
| CC(C)C1CCC(Cc2ccc(Cl)cc2)C1(O)Cn1cncn1 (stereo not drawn) [Ipconazole] | – | 0.946 µg/mL (≈ 2.83 µM) | 0.101 µg/mL (≈ 0.303 µM) |
